This is an account of results in BindingDB's records for doi:10.1021/jm00381a012 (1985).

The experiment addresses T1, Angiotensin-converting enzyme (Oryctolagus cuniculus, UniProt P12822).
T1 sequence (P12822 whole entry): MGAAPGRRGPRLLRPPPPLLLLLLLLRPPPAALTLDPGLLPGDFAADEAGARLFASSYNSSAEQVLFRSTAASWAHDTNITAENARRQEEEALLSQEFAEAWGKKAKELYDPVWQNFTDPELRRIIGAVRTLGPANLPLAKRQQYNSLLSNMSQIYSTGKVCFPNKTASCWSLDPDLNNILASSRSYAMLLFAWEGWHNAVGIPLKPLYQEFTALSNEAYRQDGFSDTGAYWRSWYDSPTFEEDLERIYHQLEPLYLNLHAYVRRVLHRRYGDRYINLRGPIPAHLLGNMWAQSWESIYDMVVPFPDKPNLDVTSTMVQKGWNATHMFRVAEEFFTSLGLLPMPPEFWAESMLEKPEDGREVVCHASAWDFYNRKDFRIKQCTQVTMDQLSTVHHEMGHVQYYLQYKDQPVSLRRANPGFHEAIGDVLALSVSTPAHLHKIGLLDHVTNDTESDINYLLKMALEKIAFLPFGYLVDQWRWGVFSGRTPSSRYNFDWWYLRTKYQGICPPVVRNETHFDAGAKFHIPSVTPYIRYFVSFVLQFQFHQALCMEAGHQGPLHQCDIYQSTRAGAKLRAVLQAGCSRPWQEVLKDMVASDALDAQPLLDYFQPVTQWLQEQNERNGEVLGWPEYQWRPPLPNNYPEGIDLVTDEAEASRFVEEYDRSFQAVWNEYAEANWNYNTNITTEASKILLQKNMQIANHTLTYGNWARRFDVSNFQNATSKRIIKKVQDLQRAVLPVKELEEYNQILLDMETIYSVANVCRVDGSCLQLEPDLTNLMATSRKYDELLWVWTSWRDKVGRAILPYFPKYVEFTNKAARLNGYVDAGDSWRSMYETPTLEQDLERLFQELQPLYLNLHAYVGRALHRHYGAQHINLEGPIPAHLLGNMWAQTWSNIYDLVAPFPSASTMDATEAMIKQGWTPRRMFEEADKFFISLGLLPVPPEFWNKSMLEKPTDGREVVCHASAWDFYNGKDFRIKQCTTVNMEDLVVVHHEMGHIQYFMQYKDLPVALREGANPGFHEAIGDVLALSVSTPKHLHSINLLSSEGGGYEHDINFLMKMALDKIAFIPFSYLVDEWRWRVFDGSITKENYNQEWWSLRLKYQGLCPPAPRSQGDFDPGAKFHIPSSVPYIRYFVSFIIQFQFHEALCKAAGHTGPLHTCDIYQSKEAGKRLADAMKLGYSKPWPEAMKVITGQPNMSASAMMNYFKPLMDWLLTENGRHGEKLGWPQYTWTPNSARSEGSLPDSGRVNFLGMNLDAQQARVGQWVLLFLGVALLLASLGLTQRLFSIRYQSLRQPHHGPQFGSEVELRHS
Briefly: ChEBML_34797.
Broadly, the IC50 is the point on the concentration scale where inhibition reaches its midpoint. Lower therefore signals higher potency. `O=C(O)CN(C(=O)c1ccc(Cl)cc1S)C1CCCC1` yielded a half-inhibitory concentration (IC50) of over 100 µM.

Molecule `CC(C)(C)C(=O)Sc1ccccc1C(=O)N(CC(=O)O)C1CCCC1` gave an IC50 of over 100 µM.

Take `CC(=O)Sc1c(C(=O)N(CC(=O)O)C2CCCC2)cccc1C(C)C`: the IC50 was over 100 µM.
